Data taken from US8247211B2, “Glycopeptide antibiotics” (American Cyanamid Company, priority 2001, dated 2012).
Converted amounts (≈) assume the structure as drawn.

Columns and labels:
Experiment in all cases: In vitro antibacterial evaluation: minimum inhibitory concentration (MIC), broth dilution method
Assay type in all cases: cell-based
Escherichia coli = conditions: 18 hours at 35° C.
Outline: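 Test strains, among them recent clinical isolates carrying methicillin, penicillin and/or vancomycin resistance, were inoculated at 5×10^5 CFU/mL. A broth dilution series spanning 64-0.06 μg/mL in Muller-Hinton II […] (NCCLS M7-A2) defined the MIC as the lowest growth-inhibiting concentration.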

Staphylococcus sp. = system: Staphylococcus sp.
Outline: (§1)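 Using Muller-Hinton II […] and an inoculum of 5×10^5 CFU/mL, antibiotic dilutions from 64 down to 0.06 μg/mL were tested following NCCLS M7-A2. The MIC is the lowest concentration inhibiting growth, including in methicillin-, penicillin- or vancomycin-resistant clinical isolates.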

Enterococcus sp. = conditions: 18 hours at 35° C.
Outline: as §1

Streptococcus sp. = conditions: 18 hours at 35° C.
Outline: as §1

[1] = broth dilution, 5×10^5 CFU/mL, 18 hours at 35° C.

CC(c1ccccc1)C1NC(=O)CNC(=O)C(CO[Si](C)(C)C(C)(C)C)NC(=O)C(C(O)C2CNC(=N)N2C2OC3COC(C)(C)OC3C3OC(C)(C)OC32)NC(=O)C(C(O)C2CNC(=N)N2)NC(=O)C(Cc2ccc(O)cc2)NC1=O (stereo not shown) [Example 248]
MIC Escherichia coli (ATCC 25922) (Escherichia coli; Escherichia coli (ATCC 25922)): 64 µg/mL (≈ 54.9 µM)
MIC Escherichia coli (GC 4559) (Escherichia coli; Escherichia coli (GC 4559)): 64 µg/mL (≈ 54.9 µM)
MIC Escherichia coli (GC 4560) (Escherichia coli; Escherichia coli (GC 4560)): 8 µg/mL (≈ 6.86 µM)
MIC Coagulase Negative Staphylococcus (GC 4547) (Staphylococcus sp.; Coagulase Negative Staphylococcus (GC 4547), 18 hours at 35° C.): 16 µg/mL (≈ 13.7 µM)
MIC Coagulase Negative Staphylococcus (GC 4548) (Staphylococcus sp.; Coagulase Negative Staphylococcus (GC 4548), 18 hours at 35° C.): 32 µg/mL (≈ 27.5 µM)
MIC Coagulase Negative Staphylococcus (GC 4549) (Staphylococcus sp.; Coagulase Negative Staphylococcus (GC 4549), 18 hours at 35° C.): 32 µg/mL (≈ 27.5 µM)
MIC Coagulase Negative Staphylococcus (GC 4551) (Staphylococcus sp.; Coagulase Negative Staphylococcus (GC 4551), 18 hours at 35° C.): 32 µg/mL (≈ 27.5 µM)
MIC Coagulase Negative Staphylococcus (GC 6257) (Staphylococcus sp.; Coagulase Negative Staphylococcus (GC 6257), 18 hours at 35° C.): 16 µg/mL (≈ 13.7 µM)
MIC Staphylococcus aureus (ATCC 29213) (Staphylococcus sp.; Staphylococcus aureus (ATCC 29213), 18 hours at 35° C.): 32 µg/mL (≈ 27.5 µM)
MIC Staphylococcus aureus (GC 1131) (Staphylococcus sp.; Staphylococcus aureus (GC 1131), 18 hours at 35° C.): 32 µg/mL (≈ 27.5 µM)
MIC Staphylococcus aureus (GC 3051) (Staphylococcus sp.; Staphylococcus aureus (GC 3051), 18 hours at 35° C.): 64 µg/mL (≈ 54.9 µM)
MIC Staphylococcus aureus (GC 3053) (Staphylococcus sp.; Staphylococcus aureus (GC 3053), 18 hours at 35° C.): 64 µg/mL (≈ 54.9 µM)
MIC Staphylococcus aureus (GC 4541) (Staphylococcus sp.; Staphylococcus aureus (GC 4541), 18 hours at 35° C.): 32 µg/mL (≈ 27.5 µM)
MIC Staphylococcus aureus (GC 4542) (Staphylococcus sp.; Staphylococcus aureus (GC 4542), 18 hours at 35° C.): 64 µg/mL (≈ 54.9 µM)
MIC Staphylococcus aureus (GC 4544) (Staphylococcus sp.; Staphylococcus aureus (GC 4544), 18 hours at 35° C.): 32 µg/mL (≈ 27.5 µM)
MIC Staphylococcus aureus (GC 4545) (Staphylococcus sp.; Staphylococcus aureus (GC 4545), 18 hours at 35° C.): 32 µg/mL (≈ 27.5 µM)
MIC Staphylococcus aureus-SMITH (GC 4543) (Staphylococcus sp.; Staphylococcus aureus-SMITH (GC 4543), 18 hours at 35° C.): 32 µg/mL (≈ 27.5 µM)
MIC Staphylococcus haemolyticus (GC 4546) (Staphylococcus sp.; Staphylococcus haemolyticus (GC 4546), 18 hours at 35° C.): 16 µg/mL (≈ 13.7 µM)
MIC Enterococcus avium (GC 4558) (Enterococcus sp.; Enterococcus avium (GC 4558)): 8 µg/mL (≈ 6.86 µM)
MIC Enterococcus faecalis (ATCC 29212) (Enterococcus sp.; Enterococcus faecalis (ATCC 29212)): 64 µg/mL (≈ 54.9 µM)
MIC Enterococcus faecalis (GC 2242) (Enterococcus sp.; Enterococcus faecalis (GC 2242)): 64 µg/mL (≈ 54.9 µM)
MIC Enterococcus faecalis (GC 2691) (Enterococcus sp.; Enterococcus faecalis (GC 2691)): 32 µg/mL (≈ 27.5 µM)
MIC Enterococcus faecalis (GC 4553) (Enterococcus sp.; Enterococcus faecalis (GC 4553)): 16 µg/mL (≈ 13.7 µM)
MIC Enterococcus faecalis (GC 4554) (Enterococcus sp.; Enterococcus faecalis (GC 4554)): 64 µg/mL (≈ 54.9 µM)
MIC Enterococcus faecalis (GC 6189) (Enterococcus sp.; Enterococcus faecalis (GC 6189)): 32 µg/mL (≈ 27.5 µM)
MIC Enterococcus faecium (GC 2243) (Enterococcus sp.; Enterococcus faecium (GC 2243)): 32 µg/mL (≈ 27.5 µM)
MIC Enterococcus faecium (GC 4556) (Enterococcus sp.; Enterococcus faecium (GC 4556)): 32 µg/mL (≈ 27.5 µM)
MIC Enterococcus faecium (GC 4557) (Enterococcus sp.; Enterococcus faecium (GC 4557)): 16 µg/mL (≈ 13.7 µM)
MIC Streptococcus agalactiae (GC 4564) (Streptococcus sp.; Streptococcus agalactiae (GC 4564)): 64 µg/mL (≈ 54.9 µM)
MIC Streptococcus pneumoniae (ATCC 6301) (Streptococcus sp.; Streptococcus pneumoniae (ATCC 6301)): 64 µg/mL (≈ 54.9 µM)
MIC Streptococcus pneumoniae (GC 1894) (Streptococcus sp.; Streptococcus pneumoniae (GC 1894)): 64 µg/mL (≈ 54.9 µM)
MIC Streptococcus pyogenes (GC 4563) (Streptococcus sp.; Streptococcus pyogenes (GC 4563)): 32 µg/mL (≈ 27.5 µM)

CC(c1ccccc1)C1NC(=O)CNC(=O)C(CO)NC(=O)C(C(O)C2CNC(=N)N2C2OC(CO)C(O)C(O)C2O)NC(=O)C(C(O)C2CNC(=N)N2)NC(=O)C(Cc2ccc(OC3OC(CO)C(OC4OC5COC(c6cccs6)OC5C(O)C4O)C(O)C3O)cc2)NC1=O (stereo not drawn) [Example 132, Cyclo[glycyl-β-methylphenylalanyl-O-[4-O-[4,6-O-(2-thienylmethylene)hexopyranosyl]-hexopyranosyl]tyrosyl-3-(2-iminoimidazolidin-4-yl)seryl-3-(3-hexopyranosyl-2-iminoimidazolidin-4-yl)serylseryl]]
MIC Escherichia coli (ATCC 25922) (Escherichia coli; 5×10^5 CFU/mL): >64 µg/mL
MIC Escherichia coli (GC 4559) (Escherichia coli; 5×10^5 CFU/mL): 32 µg/mL (≈ 23 µM)
MIC Escherichia coli (GC 4560) (Escherichia coli; 5×10^5 CFU/mL): 1 µg/mL (≈ 0.72 µM)
MIC Coagulase Negative Staphylococcus (GC 4547) (Staphylococcus sp.; [1]): 2 µg/mL (≈ 1.44 µM)
MIC Coagulase Negative Staphylococcus (GC 4548) (Staphylococcus sp.; [1]): 1 µg/mL (≈ 0.72 µM)
MIC Coagulase Negative Staphylococcus (GC 4549) (Staphylococcus sp.; [1]): 1 µg/mL (≈ 0.72 µM)
MIC Coagulase Negative Staphylococcus (GC 4551) (Staphylococcus sp.; [1]): 2 µg/mL (≈ 1.44 µM)
MIC Coagulase Negative Staphylococcus (GC 6257) (Staphylococcus sp.; [1]): 1 µg/mL (≈ 0.72 µM)
MIC Staphylococcus aureus-SMITH (GC 4543) (Staphylococcus sp.; [1]): 2 µg/mL (≈ 1.44 µM)
MIC Staphylococcus haemolyticus (GC 4546) (Staphylococcus sp.; [1]): 1 µg/mL (≈ 0.72 µM)
MIC Staphylococcus aureus (ATCC 29213) (Staphylococcus sp.; strain ATCC 29213): 4 µg/mL (≈ 2.88 µM)
MIC Staphylococcus aureus (ATCC 29213) (Staphylococcus sp.; strain ATCC 29213, broth dilution, 18 hours at 35° C.): 4 µg/mL (≈ 2.88 µM)
MIC Staphylococcus aureus (GC 1131) (Staphylococcus sp.; strain GC 1131): 2 µg/mL (≈ 1.44 µM)
MIC Staphylococcus aureus (GC 1131) (Staphylococcus sp.; strain GC 1131, broth dilution, 18 hours at 35° C.): 2 µg/mL (≈ 1.44 µM)
MIC Staphylococcus aureus (GC 3051) (Staphylococcus sp.; strain GC 3051): 2 µg/mL (≈ 1.44 µM)
MIC Staphylococcus aureus (GC 3051) (Staphylococcus sp.; strain GC 3051, broth dilution, 18 hours at 35° C.): 2 µg/mL (≈ 1.44 µM)
MIC Staphylococcus aureus (GC 3053) (Staphylococcus sp.; strain GC 3053): 4 µg/mL (≈ 2.88 µM)
MIC Staphylococcus aureus (GC 3053) (Staphylococcus sp.; strain GC 3053, broth dilution, 18 hours at 35° C.): 4 µg/mL (≈ 2.88 µM)
MIC Staphylococcus aureus (GC 4541) (Staphylococcus sp.; strain GC 4541): 2 µg/mL (≈ 1.44 µM)
MIC Staphylococcus aureus (GC 4541) (Staphylococcus sp.; strain GC 4541, broth dilution, 18 hours at 35° C.): 2 µg/mL (≈ 1.44 µM)
MIC Staphylococcus aureus (GC 4542) (Staphylococcus sp.; strain GC 4542): 2 µg/mL (≈ 1.44 µM)
MIC Staphylococcus aureus (GC 4542) (Staphylococcus sp.; strain GC 4542, broth dilution, 18 hours at 35° C.): 2 µg/mL (≈ 1.44 µM)
MIC Staphylococcus aureus-SMITH (GC 4543) (Staphylococcus sp.; strain GC 4543, broth dilution, 18 hours at 35° C.): 2 µg/mL (≈ 1.44 µM)
MIC Staphylococcus aureus (GC 4544) (Staphylococcus sp.; strain GC 4544): 4 µg/mL (≈ 2.88 µM)
MIC Staphylococcus aureus (GC 4544) (Staphylococcus sp.; strain GC 4544, broth dilution, 18 hours at 35° C.): 4 µg/mL (≈ 2.88 µM)
MIC Staphylococcus aureus (GC 4545) (Staphylococcus sp.; strain GC 4545): 2 µg/mL (≈ 1.44 µM)
MIC Staphylococcus aureus (GC 4545) (Staphylococcus sp.; strain GC 4545, broth dilution, 18 hours at 35° C.): 2 µg/mL (≈ 1.44 µM)
MIC Staphylococcus haemolyticus (GC 4546) (Staphylococcus sp.; strain GC 4546, broth dilution, 18 hours at 35° C.): 1 µg/mL (≈ 0.72 µM)
MIC Coagulase Negative Staphylococcus (GC 4547) (Staphylococcus sp.; strain GC 4547, broth dilution, 18 hours at 35° C.): 2 µg/mL (≈ 1.44 µM)
MIC Coagulase Negative Staphylococcus (GC 4548) (Staphylococcus sp.; strain GC 4548, broth dilution, 18 hours at 35° C.): 1 µg/mL (≈ 0.72 µM)
MIC Coagulase Negative Staphylococcus (GC 4549) (Staphylococcus sp.; strain GC 4549, broth dilution, 18 hours at 35° C.): 1 µg/mL (≈ 0.72 µM)
MIC Coagulase Negative Staphylococcus (GC 4551) (Staphylococcus sp.; strain GC 4551, broth dilution, 18 hours at 35° C.): 2 µg/mL (≈ 1.44 µM)
MIC Coagulase Negative Staphylococcus (GC 6257) (Staphylococcus sp.; strain GC 6257, broth dilution, 18 hours at 35° C.): 1 µg/mL (≈ 0.72 µM)
MIC Enterococccus avium (GC 4558) (Enterococcus sp.; broth dilution, 5×10^5 CFU/mL): 16 µg/mL (≈ 11.5 µM)
MIC Enterococccus faecalis (ATCC 29212) (Enterococcus sp.; broth dilution, 5×10^5 CFU/mL): 8 µg/mL (≈ 5.76 µM)
MIC Enterococccus faecalis (GC 2691) (Enterococcus sp.; broth dilution, 5×10^5 CFU/mL): 8 µg/mL (≈ 5.76 µM)
MIC Enterococccus faecalis (GC 3059) (Enterococcus sp.; broth dilution, 5×10^5 CFU/mL): 16 µg/mL (≈ 11.5 µM)
MIC Enterococccus faecalis (GC 4552) (Enterococcus sp.; broth dilution, 5×10^5 CFU/mL): 8 µg/mL (≈ 5.76 µM)
MIC Enterococccus faecalis (GC 4553) (Enterococcus sp.; broth dilution, 5×10^5 CFU/mL): 16 µg/mL (≈ 11.5 µM)
MIC Enterococccus faecalis (GC 4554) (Enterococcus sp.; broth dilution, 5×10^5 CFU/mL): 8 µg/mL (≈ 5.76 µM)
MIC Enterococccus faecalis (GC 6189) (Enterococcus sp.; broth dilution, 5×10^5 CFU/mL): 8 µg/mL (≈ 5.76 µM)
MIC Enterococccus faecium (GC 2243) (Enterococcus sp.; broth dilution, 5×10^5 CFU/mL): 8 µg/mL (≈ 5.76 µM)
MIC Enterococccus faecium (GC 4556) (Enterococcus sp.; broth dilution, 5×10^5 CFU/mL): 8 µg/mL (≈ 5.76 µM)
MIC Enterococccus faecium (GC 4557) (Enterococcus sp.; broth dilution, 5×10^5 CFU/mL): 4 µg/mL (≈ 2.88 µM)
MIC Enterococcus faecalis (GC 2242) (Enterococcus sp.; broth dilution, 5×10^5 CFU/mL): 8 µg/mL (≈ 5.76 µM)
MIC Streptococcus agalactiae (GC 4564) (Streptococcus sp.; broth dilution, 5×10^5 CFU/mL): 0.5 µg/mL (≈ 0.36 µM)
MIC Streptococcus pneumoniae (GC 1894) (Streptococcus sp.; broth dilution, 5×10^5 CFU/mL): 0.12 µg/mL (≈ 0.0864 µM)
MIC Streptococcus pneumoniae (GC 4565) (Streptococcus sp.; broth dilution, 5×10^5 CFU/mL): 0.25 µg/mL (≈ 0.18 µM)
MIC Streptococcus pneumonine (ATCC 6301) (Streptococcus sp.; broth dilution, 5×10^5 CFU/mL): 0.25 µg/mL (≈ 0.18 µM)
MIC Streptococcus pyogenes (GC 4563) (Streptococcus sp.; broth dilution, 5×10^5 CFU/mL): 0.5 µg/mL (≈ 0.36 µM)
